In publication PMC5775429, “LY2087101 and dFBr share transmembrane binding sites in the (α4)3(β2)2 Nicotinic Acetylcholine Receptor” (Scientific Reports, 2018):
pEC50: −log10 of the molar value. Where two headings read alike, the source gives them in different places. Marks after values point to notes of the source that are not given here.

Columns and labels:
(α4L63I)3(β2)2 nAChR [1] = molecular target: T1, (α4L63I)3(β2)2 nAChR (Homo sapiens, UniProt P43681, L63I); assay: Two-electrode voltage-clamp of ACh-induced currents in Xenopus oocytes; assay type: cell-based; conditions: 10 µM ACh + 1 µM LY2087101 vs 10 µM ACh alone
T1 sequence (P43681 29-627 L63I limits assumed): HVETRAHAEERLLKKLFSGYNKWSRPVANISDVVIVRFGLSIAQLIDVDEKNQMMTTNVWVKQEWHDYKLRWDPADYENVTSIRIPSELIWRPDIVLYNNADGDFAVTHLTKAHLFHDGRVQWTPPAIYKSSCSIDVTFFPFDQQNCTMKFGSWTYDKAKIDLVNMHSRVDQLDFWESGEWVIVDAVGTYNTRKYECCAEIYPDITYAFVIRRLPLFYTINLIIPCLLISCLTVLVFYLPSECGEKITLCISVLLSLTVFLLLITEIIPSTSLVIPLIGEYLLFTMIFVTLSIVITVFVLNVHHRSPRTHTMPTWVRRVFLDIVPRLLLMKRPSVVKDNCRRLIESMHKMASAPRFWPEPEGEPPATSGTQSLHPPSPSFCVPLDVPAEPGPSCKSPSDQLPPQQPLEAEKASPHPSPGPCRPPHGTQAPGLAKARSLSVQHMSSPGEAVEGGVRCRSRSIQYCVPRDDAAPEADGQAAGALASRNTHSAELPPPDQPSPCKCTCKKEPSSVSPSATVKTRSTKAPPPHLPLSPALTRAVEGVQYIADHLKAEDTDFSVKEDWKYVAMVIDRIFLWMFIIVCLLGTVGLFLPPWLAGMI
T1 sequence (P17787 26-502 partner): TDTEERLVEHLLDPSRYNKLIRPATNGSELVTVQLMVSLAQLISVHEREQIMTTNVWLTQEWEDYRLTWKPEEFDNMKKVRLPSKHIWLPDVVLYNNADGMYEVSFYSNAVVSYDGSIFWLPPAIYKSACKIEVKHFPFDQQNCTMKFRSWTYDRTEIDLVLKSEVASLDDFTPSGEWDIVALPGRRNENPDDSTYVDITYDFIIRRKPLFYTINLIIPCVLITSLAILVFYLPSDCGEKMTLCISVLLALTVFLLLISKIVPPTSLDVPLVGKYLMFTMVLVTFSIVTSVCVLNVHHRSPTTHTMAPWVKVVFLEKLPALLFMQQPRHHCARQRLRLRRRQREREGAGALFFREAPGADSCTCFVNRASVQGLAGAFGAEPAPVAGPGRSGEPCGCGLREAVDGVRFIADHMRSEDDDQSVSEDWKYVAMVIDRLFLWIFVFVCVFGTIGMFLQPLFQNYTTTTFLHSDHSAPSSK
Method: (§1) For amino acid substitutions within the α4 nAChR subunit, point mutations were introduced into pSP64ployA plasmid with cDNA encoding for human α4 nAChR subunit with mutagenic primer pairs using the Quick Change II Site-Directed Mutagenesis Kit (Agilent Technologies) then confirmed by DNA sequencing (GENEWIZ, LLC, South Plainfield, NJ). cRNA transcripts suitable for oocyte expression were prepared in vitro from linearized plasmids [α3 (BamH1), α4 (AseI), β2 (PvuII), β4 (XhoI)] using mMESSAGE mMACHINE high yield capped RNA transcription kits (Ambion) and purified on NucAway Spin column (Invitrogen). cRNA concentration was determined by spectroscopy (Concentration (ug/ul) = Abs260 * 40), aliquoted and stored at −80 °C until used.
(§2) Ovarian lobules were surgically harvested from oocytes-positive female Xenopus laevis (NASCO, Fort Atkinson, WI) according to an animal use protocol approved by the Texas A&M Health Sciences Center Institutional Animals Care and Use Committee. The Texas A&M Health Sciences Center Research Facility is registered as an animal research facility with the United States Department of Agriculture and is fully accredited by the American Association for Accreditation of Laboratory Animal Care (AAALAC). For oocytes defolliculation, ovarian lobes were treated with 3 mg/ml collagenase type 2 (Worthington Biomedical, Lakewood, NJ) in Ca + 2-free buffer (85 mM NaCl, 2.5 mM KCl, 1 mM MgCl2, 5 mM HEPES, pH 7.6). Collagenase treatment was allowed to proceed for 3 hours at room temperature with gentle shaking then oocytes were washed several times with buffer to remove collagenase then with ND96-gentamicine buffer. Healthy Stage V and VI oocytes were visually selected and maintained at 18 °C in modified ND96-gentamicine buffer (96 mM NaCl, 2 mM KCl, 1.8 mM CaCl2, 1 mM MgCl2, 5 mM HEPES, 50 µg/ml gentamicin, pH 7.6). Oocytes were injected with 50–100 ng of the desired nAChR subunits cRNA mix at ratios of 8α:1β or 1α:8β to express nAChRs with subunit stoichiometries of 3α:2β (low agonist sensitivity) or 2α:3β (high agonist sensitivity), respectively.
(§3) Two-electrode voltage clamp recording of ACh-induced responses of Xenopus oocytes were performed 24–72 h following injection of nAChR subunit cRNA mix to ensure adequate nAChRs expression. Xenopus oocytes were placed in a custom-made recording chamber that is connected to eight channels automated perfusion system (Warner Instruments) and voltage-clamped at −50 mV using Oocyte Clamp OC-725B (Warner Instruments). Oocytes were continuously perfused with recording buffer (100 mM NaCl, 2 mM KCl, 1 mM CaCl2, 0.8 mM MgCl2, 1 mM EGTA, 10 mM Hepes, pH 7.5) except during periods of drug applications. […] Currents were digitized using Digidata 1550 A (Axon Instruments) and peak currents were quantified using pCLAMP 10 (Axon Instruments) then normalized and analyzed using Excels 2010 (Microsoft corporation) and SigmaPlot 11.0 (Systat Software).

(α4T152I)3(β2)2 nAChR [2] = molecular target: T2, (α4T152I)3(β2)2 nAChR (Homo sapiens, UniProt P43681, T152I); assay: as above; assay type: cell-based; conditions: 10 µM ACh + 1 µM LY2087101 vs 10 µM ACh alone
T2 sequence (P43681 29-627 T152I limits assumed): as the sequence (P43681 29-627 L63I limits assumed) above, with I35L, T124I counted along it
T2 sequence (P17787 26-502 partner): as the sequence (P17787 26-502 partner) above
Method: as §1, §2, §3

(α4Q150T)3(β2)2 nAChR = (α4Q150T)3(β2)2 nAChR (Homo sapiens, UniProt P43681, Q150T); assay: as above; assay type: cell-based; conditions: 10 µM ACh + 1 µM LY2087101 vs 10 µM ACh alone
Sequence of (α4Q150T)3(β2)2 nAChR (P43681 29-627 Q150T limits assumed): as the sequence (P43681 29-627 L63I limits assumed) above, with I35L, Q122T counted along it
Sequence of (α4Q150T)3(β2)2 nAChR (P17787 26-502 partner): as the sequence (P17787 26-502 partner) above
Method: as §1, §2, §3

(α4E92I)3(β2)2 nAChR = (α4E92I)3(β2)2 nAChR (Homo sapiens, UniProt P43681, E92I); assay: as above; assay type: cell-based; conditions: 10 µM ACh + 1 µM LY2087101 vs 10 µM ACh alone
Sequence of (α4E92I)3(β2)2 nAChR (P43681 29-627 E92I limits assumed): as the sequence (P43681 29-627 L63I limits assumed) above, with I35L, E64I counted along it
Sequence of (α4E92I)3(β2)2 nAChR (P17787 26-502 partner): as the sequence (P17787 26-502 partner) above
Method: as §1, §2, §3

(α4H142L)3(β2)2 nAChR = (α4H142L)3(β2)2 nAChR (Homo sapiens, UniProt P43681, H142L); assay: as above; assay type: cell-based; conditions: 10 µM ACh + 1 µM LY2087101 vs 10 µM ACh alone
Sequence of (α4H142L)3(β2)2 nAChR (P43681 29-627 H142L limits assumed): as the sequence (P43681 29-627 L63I limits assumed) above, with I35L, H114L counted along it
Sequence of (α4H142L)3(β2)2 nAChR (P17787 26-502 partner): as the sequence (P17787 26-502 partner) above
Method: as §1, §2, §3

(α4H94N)3(β2)2 nAChR = (α4H94N)3(β2)2 nAChR (Homo sapiens, UniProt P43681, H94N); assay: as above; assay type: cell-based; conditions: 10 µM ACh + 1 µM LY2087101 vs 10 µM ACh alone
Sequence of (α4H94N)3(β2)2 nAChR (P43681 29-627 H94N limits assumed): as the sequence (P43681 29-627 L63I limits assumed) above, with I35L, H66N counted along it
Sequence of (α4H94N)3(β2)2 nAChR (P17787 26-502 partner): as the sequence (P17787 26-502 partner) above
Method: as §1, §2, §3

(α4G67E)3(β2)2 nAChR = (α4G67E)3(β2)2 nAChR (Homo sapiens, UniProt P43681, G67E); assay: as above; assay type: cell-based; conditions: 10 µM ACh + 1 µM LY2087101 vs 10 µM ACh alone
Sequence of (α4G67E)3(β2)2 nAChR (P43681 29-627 G67E limits assumed): as the sequence (P43681 29-627 L63I limits assumed) above, with I35L, G39E counted along it
Sequence of (α4G67E)3(β2)2 nAChR (P17787 26-502 partner): as the sequence (P17787 26-502 partner) above
Method: as §1, §2, §3

(α4R148E)3(β2)2 nAChR [3] = molecular target: T3, (α4R148E)3(β2)2 nAChR (Homo sapiens, UniProt P43681, R148E); assay: as above; assay type: cell-based; conditions: 10 µM ACh + 1 µM LY2087101 vs 10 µM ACh alone
T3 sequence (P43681 29-627 R148E limits assumed): as the sequence (P43681 29-627 L63I limits assumed) above, with I35L, R120E counted along it
T3 sequence (P17787 26-502 partner): as the sequence (P17787 26-502 partner) above
Method: as §1, §2, §3

animal model = system: animal model; parameters: method as in PMID 23712602, PMID 28446611, PMID 28809075, PMID 28105008; conditions: cited from earlier work
(α4)3(β2)2 nAChR = molecular target: T4, (α4)3(β2)2 nAChR (Homo sapiens, UniProt P17787+P43681); conditions: cited from earlier work
T4 construct: expressed in transfected cells; host or cells: Xenopus laevis oocytes injected with cRNA
T4 sequence (P43681 29-627 limits assumed): as the sequence (P43681 29-627 L63I limits assumed) above, with I35L counted along it
T4 sequence (P17787 26-502): as the sequence (P17787 26-502 partner) above

(α4R148E)3(β2)2 nAChR [4] = molecular target: T3, (α4R148E)3(β2)2 nAChR; parameters: method as in PMID 28446611; conditions: 10 µM ACh + 1 µM dFBr vs 10 µM ACh alone; data reported previously ref 29; cited from earlier work
(α4L63I)3(β2)2 nAChR [5] = molecular target: T1, (α4L63I)3(β2)2 nAChR; parameters: method as in PMID 28446611; conditions: 10 µM ACh + 1 µM dFBr vs 10 µM ACh alone; data reported previously ref 29; cited from earlier work
α3β2 nAChR = molecular target: T5, α3β2 nAChR (Homo sapiens, UniProt P17787+P32297); assay: Two-electrode voltage-clamp of ACh-induced currents in Xenopus oocytes; assay type: cell-based; conditions: 1 μM PAM
T5 construct: expressed in transfected cells; host or cells: Xenopus laevis oocytes injected with cRNA
T5 sequence (P32297 32-505): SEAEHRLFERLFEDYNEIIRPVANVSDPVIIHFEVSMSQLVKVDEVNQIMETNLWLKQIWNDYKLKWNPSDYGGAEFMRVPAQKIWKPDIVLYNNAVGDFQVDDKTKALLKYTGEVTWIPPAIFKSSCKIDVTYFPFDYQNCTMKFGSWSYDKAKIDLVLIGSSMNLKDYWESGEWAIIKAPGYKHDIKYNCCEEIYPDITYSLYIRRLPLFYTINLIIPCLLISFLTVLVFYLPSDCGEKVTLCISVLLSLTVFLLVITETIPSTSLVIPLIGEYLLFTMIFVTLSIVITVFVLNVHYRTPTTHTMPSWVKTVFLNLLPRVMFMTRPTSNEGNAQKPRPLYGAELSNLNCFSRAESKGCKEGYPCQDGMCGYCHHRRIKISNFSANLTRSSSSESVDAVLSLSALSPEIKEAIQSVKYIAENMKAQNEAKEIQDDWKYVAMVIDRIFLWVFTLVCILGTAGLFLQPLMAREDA
T5 sequence (P17787 26-502): as the sequence (P17787 26-502 partner) above

(α4)2(β2)3 nAChR = molecular target: T6, (α4)2(β2)3 nAChR (Homo sapiens, UniProt P17787+P43681); conditions: cited from earlier work
T6 construct: expressed in transfected cells; host or cells: Xenopus laevis oocytes injected with cRNA
T6 sequence (P43681 29-627 limits assumed): as the sequence (P43681 29-627 L63I limits assumed) above, with I35L counted along it
T6 sequence (P17787 26-502): as the sequence (P17787 26-502 partner) above

(α4T152I)3(β2)2 nAChR [6] = molecular target: T2, (α4T152I)3(β2)2 nAChR; parameters: method as in PMID 28446611; conditions: 10 µM ACh + 1 µM dFBr vs 10 µM ACh alone; data reported previously ref 29; cited from earlier work
α3β4 nAChR = molecular target: T7, α3β4 nAChR (Homo sapiens, UniProt P30926+P32297); assay: Two-electrode voltage-clamp of ACh-induced currents in Xenopus oocytes; assay type: cell-based; conditions: 1 μM PAM
T7 construct: expressed in transfected cells; host or cells: Xenopus laevis oocytes injected with cRNA
T7 sequence (P32297 32-505): as the sequence (P32297 32-505) above
T7 sequence (P30926 22-498): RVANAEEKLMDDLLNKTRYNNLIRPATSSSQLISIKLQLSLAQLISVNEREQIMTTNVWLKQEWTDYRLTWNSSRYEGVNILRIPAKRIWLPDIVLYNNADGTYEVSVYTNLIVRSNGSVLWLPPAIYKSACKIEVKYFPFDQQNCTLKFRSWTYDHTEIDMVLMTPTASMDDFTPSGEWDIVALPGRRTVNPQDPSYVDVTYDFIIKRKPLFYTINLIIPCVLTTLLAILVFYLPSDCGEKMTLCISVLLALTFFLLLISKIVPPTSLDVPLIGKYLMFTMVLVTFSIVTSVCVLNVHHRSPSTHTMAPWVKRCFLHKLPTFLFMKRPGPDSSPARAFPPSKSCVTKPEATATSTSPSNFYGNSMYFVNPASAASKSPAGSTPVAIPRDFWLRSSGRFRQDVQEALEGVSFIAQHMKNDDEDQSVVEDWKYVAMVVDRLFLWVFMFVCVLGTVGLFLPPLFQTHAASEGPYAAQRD
Method: Next, Xenopus oocytes were injected with RNA mixes of […], α3:β4, […], or α4:β4 at ratios of 8:1, 1:1, or 1:8 to express nAChRs with different subunit composition and with various α:β ratios.
as §2
Oocytes were continuously perfused with recording buffer (100 mM NaCl, 2 mM KCl, 1 mM CaCl2, 0.8 mM MgCl2, 1 mM EGTA, 10 mM Hepes, pH 7.5) except during periods of drug applications.

[7] = ACh concentration-response curve

Compound	R, potentiation ratio (PR) ((α4L63I)3(β2)2 nAChR [1])	R, potentiation ratio (PR) ((α4T152I)3(β2)2 nAChR [2])	R, potentiation ratio (PR) ((α4Q150T)3(β2)2 nAChR)	R, potentiation ratio (PR) ((α4E92I)3(β2)2 nAChR)	R, potentiation ratio (PR) ((α4H142L)3(β2)2 nAChR)	R, potentiation ratio (PR) ((α4H94N)3(β2)2 nAChR)	R, potentiation ratio (PR) ((α4G67E)3(β2)2 nAChR)	R, potentiation ratio (PR) ((α4R148E)3(β2)2 nAChR [3])	antiallodynic response of nicotine (animal model)	increase in ACh efficacy (Imax) by dFBr ((α4)3(β2)2 nAChR; [7])	dFBr maximal potentiation ((α4)3(β2)2 nAChR) [%]	R, potentiation ratio (PR) ((α4R148E)3(β2)2 nAChR [4])	R, potentiation ratio (PR) ((α4L63I)3(β2)2 nAChR [5])	potentiation of ACh responses (α3β2 nAChR)	increase in ACh efficacy (Imax) by dFBr ((α4)2(β2)3 nAChR; [7])	dFBr maximal potentiation ((α4)2(β2)3 nAChR) [%]	pEC50 ((α4)2(β2)3 nAChR; read-out: dFBr potentiation EC50)	R, potentiation ratio (PR) ((α4T152I)3(β2)2 nAChR [6])	potentiation of ACh responses (α3β4 nAChR)
Cc1nc(Nc2ccc(F)cc2)sc1C(=O)c1ccsc1 [LY2087101, [2-[(4-Fluorophenyl)amino]-4-methyl-5-thiazolyl]-3-thienylmethanone]	4.3 ± 0.4	4.3 ± 1.3	4.3 ± 0.2	10.9 ± 2.6	8.7 ± 0.5	5.2 ± 1.0	5.2 ± 0.7	11.1 ± 1.2	–	–	–	–	–	–	–	–	–	–	–
C=CC(C)(C)c1[nH]c2cc(Br)ccc2c1CCNC [dFBr]	–	–	–	–	–	–	–	–	potentiate the antiallodynic response of nicotine	~ 4 fold	400	10.3 ± 2.4^a	3.5 ± 0.3^a	did not potentiate	~ 4 fold	300	~6.00	2.6 ± 0.4^a	did not potentiate
